According to patent US20140255392A1 (BAYER INTELLECTUAL PROPERTY GMBH, priority 2011, published 2014):

The compounds below were run against T1, human kinase Mps-1 (Homo sapiens, UniProt P33981) (assay: Mps-1 kinase assay (TR-FRET)). Details: N-terminally GST-tagged human full length recombinant Mps-1; 10 μM ATP; 1 μM peptide substrate; 60 min at 22° C.
T1 construct: N-terminally GST-tagged human full length recombinant Mps-1 kinase; GST (N); purchased Invitrogen, Karslruhe, Germany PV4071
T1 sequence (P33981 1-857): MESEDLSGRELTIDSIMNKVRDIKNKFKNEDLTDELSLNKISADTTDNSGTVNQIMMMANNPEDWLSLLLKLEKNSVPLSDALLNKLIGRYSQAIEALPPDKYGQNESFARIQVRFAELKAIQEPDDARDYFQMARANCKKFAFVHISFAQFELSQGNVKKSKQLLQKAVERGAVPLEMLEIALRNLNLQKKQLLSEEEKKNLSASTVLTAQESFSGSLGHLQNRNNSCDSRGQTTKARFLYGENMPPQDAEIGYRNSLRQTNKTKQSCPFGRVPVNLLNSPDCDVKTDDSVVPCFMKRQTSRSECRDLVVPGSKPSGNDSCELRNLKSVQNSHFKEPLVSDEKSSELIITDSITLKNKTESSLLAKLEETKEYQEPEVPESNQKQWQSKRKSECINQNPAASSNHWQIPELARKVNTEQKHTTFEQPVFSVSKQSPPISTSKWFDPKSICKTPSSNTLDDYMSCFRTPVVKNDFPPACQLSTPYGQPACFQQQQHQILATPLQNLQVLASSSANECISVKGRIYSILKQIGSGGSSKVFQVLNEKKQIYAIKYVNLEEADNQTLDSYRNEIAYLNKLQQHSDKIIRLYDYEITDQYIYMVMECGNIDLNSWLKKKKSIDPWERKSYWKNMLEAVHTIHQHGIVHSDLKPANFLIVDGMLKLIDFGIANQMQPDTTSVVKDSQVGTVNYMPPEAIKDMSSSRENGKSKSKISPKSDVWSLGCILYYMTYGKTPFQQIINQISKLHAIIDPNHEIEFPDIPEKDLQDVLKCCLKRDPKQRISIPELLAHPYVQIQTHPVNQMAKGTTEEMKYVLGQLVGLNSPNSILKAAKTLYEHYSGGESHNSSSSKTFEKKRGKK
Type: biochemical
Outline: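 Compounds were tested against recombinant full-length Mps-1 bearing an N-terminal GST tag, about 1 nM final, with a biotinylated amide-capped peptide as substrate. Detection reagents were then bound for 1 h at 22° C and the product read by TR-FRET.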
For `Cc1ccc(F)cc1Oc1cc(NCCC(F)(F)F)c2ncc(-c3ccc(C(=O)NC4CCC4)c(C)c3)n2c1` [Example 47, N-cyclobutyl-4-{6-(5-fluoro-2-methylphenoxy)-8-[(3,3,3-trifluoropropyl)amino]imidazo[1,2-a]pyridin-3-yl}-2-methylbenzamide], the IC50 was 7.6 nM. With `CCNC(=O)c1ccc(-c2cnc3c(NCCC(F)(F)F)cc(Oc4cccc(F)c4)cn23)cc1C` [Example 10, N-ethyl-4-{6-(3-fluorophenoxy)-8-[(3,3,3-trifluoropropyl)amino]imidazo[1,2-a]pyridin-3-yl}-2-methylbenzamide] the IC50 was 2.9 nM. For `CNC(=O)c1ccc(-c2cnc3c(NCCC(F)(F)F)cc(Oc4cccc(Cl)c4)cn23)cc1C` [Example 34, 4-{6-(3-chlorophenoxy)-8-[(3,3,3-trifluoropropyl)amino]imidazo[1,2-a]pyridin-3-yl}-N,2-dimethylbenzamide], the IC50 was 6.2 nM. `Cc1cc(-c2cnc3c(NCCC(F)(F)F)cc(-c4ccccc4O)cn23)ccc1C(=O)NC1CC1` [Example 132, N-cyclopropyl-4-{6-(2-hydroxyphenyl)-8-[(3,3,3-trifluoropropyl)amino]imidazo[1,2-a]pyridin-3-yl}-2-methylbenzamide] was tested, and the IC50 was 1.1 nM. For `Cc1cc(-c2cnc3c(NCCC(F)(F)F)cc(Oc4cccc(O)c4)cn23)ccc1C(=O)NC1CC1` [Example 136, N-cyclopropyl-4-{6-(3-hydroxyphenoxy)-8-[(3,3,3-trifluoropropyl)amino]imidazo[1,2-a]pyridin-3-yl}-2-methylbenzamide], the IC50 was 0.5 nM. For `CNC(=O)c1ccc(-c2cnc3c(NCCC(F)(F)F)cc(-c4ccc(C(=O)NC5(C#N)CC5)c(C)c4)cn23)cc1C` [Example 156, 4-(6-{4-[(1-cyanocyclopropyl)carbamoyl]-3-methylphenyl}-8-[(3,3,3-trifluoropropyl)amino]imidazo[1,2-a]pyridin-3-yl)-N,2-dimethylbenzamide], the IC50 was 21.3 nM.
